Data reported in patent publication US20250134847A1, “COMBINATION THERAPIES” (QBIOTICS PTY LTD, priority 2022, published 2025).
Read-outs that look alike come from different tables or passages of the source.

Experiments:
B16-F10-OVA tumours = test: B16-F10-OVA mouse melanoma tumours in C57BL/6 mice, intratumoural Compound 1 and intraperitoneal doxorubicin
Method: (§3) B16-F10-OVA (B16-F10 mouse melanoma cell line overexpressing chicken ovalbumin) were cultured in RPMI-1640 supplemented with 10% FCS (complete medium) and 3 mM HEPES. LLC (Lewis Lung Carcinoma) cells were cultured in DMEM (Gibco) supplemented with 10% FCS. Both cell lines were incubated at 37° C., 5% CO2 in a humidified incubator.
(§4) C57BL/6 mice were purchased from the Animal Resources Centre (ARC), Murdoch, Western Australia. […] All mice were housed in a specific pathogen free (SPF) facility, with 12 hours light/dark cycle and continual access to food and water.
C57BL/6 mice (6-7 weeks old) were injected subcutaneously (s.c.) on both flanks with B16-F10-OVA mouse melanoma cells (2×10^5 cells per site in 50 μl) or LLC mouse lung cancer cells (5×10^5 cells per site in 50 μl). Tumours were allowed to develop to approximately 75-100 mm^3. Mice were then treated intra-peritoneally with doxorubicin in saline (3 mg/kg; 60 μg/dose, saline for vehicle). […] Treatment with the chemotherapy agent was repeated after 7 and 14 days. For the B16-F10-OVA model, 5 mice per group (10 tumours) were used in duplicate experiments (total of 10 mice per group, 20 tumours in total from both experiments). For the LLC tumour model, 5 mice per group were used in a single experiment (10 tumours).
Volumes were recorded using digital calipers and expressed as mm^3 according to the formula A×b×b×0.5 where A=length and b=measured breadth of the tumour. Mice were also assessed for clinical signs of distress according to an approved clinical score sheet during the experiment. The experiment ceased when an unacceptable clinical score (>6) was reached, or the cumulative tumour burden of the mouse exceeded 1,000 mm^3. […] Mice were humanely euthanized by CO2 asphyxiation at the end of the experiment.

LLC tumours = test: Lewis Lung Carcinoma (LLC) tumours in C57BL/6 mice, intratumoural Compound 1 and intraperitoneal doxorubicin; assay type: in vivo, mouse
Method: as §3, §4
C57BL/6 mice (6-7 weeks old) were injected subcutaneously (s.c.) on both flanks with B16-F10-OVA mouse melanoma cells (2×10^5 cells per site in 50 μl) or LLC mouse lung cancer cells (5×10^5 cells per site in 50 μl). Tumours were allowed to develop to approximately 75-100 mm^3. Mice were then treated intra-peritoneally with doxorubicin in saline (3 mg/kg; 60 μg/dose, saline for vehicle). […] Treatment with the chemotherapy agent was repeated after 7 and 14 days. […]
Volumes were recorded using digital calipers and expressed as mm^3 according to the formula A×b×b×0.5 where A=length and b=measured breadth of the tumour. Mice were also assessed for clinical signs of distress according to an approved clinical score sheet during the experiment. […]

SCC-15 tumours [1] = details: Xenogeneic Model
Method: (§5) Prior to inoculation of subject mice, the cancer cells were seeded to T175 tissue culture flasks (Thermo Scientific) to increase cell numbers. Once 70-80% confluent, cells were trypsinized and resuspended in RPMI-1640 media for harvesting and cell count using a haemocytometer. The cell volume was centrifuged and the pellet reconstituted in RPMI-1640 media to a volume sufficient for the number of inoculations required at 100 μL per injection with two sites per mouse subject. The cell suspension was kept on ice and transferred to the animal facility for injection into the subjects.
The BALB/c Foxn1^nu mice were obtained from the Animal Resource Centre, Western Australia. The C3H/HeNCr mice were bred at the QIMR Animal Facility.
C3H/HeNCr mice were shaved (Wahl, Illinois, USA) one day before inoculation. Whilst restrained subjects were inoculated on the hind quarter bilaterally by injecting 100 μL of the appropriate cell suspension into the subcutaneous space with a Terumo® (Tokyo, Japan) 27G×½″ needle. Subjects were ear tagged for identification. Following inoculation, mice were monitored twice weekly for tumour development and well-being and once tumours developed, the subjects were monitored daily.
(§6) A cohort of thirty BALB/c Foxn1^nu and twenty-one C3H/HeNCr mice, each with two tumours per mouse were divided into six experimental groups as set out in Table 2.
(§7) Weight was recorded for each subject prior to and post-treatment, and at the time of culling. The width and length of each tumour was measured using 150 mm digital Vernier callipers (Kinchrome, Qld, AU) and individual tumour volume (mm^3) calculated using the formula:
IP injections were performed by first sterilizing the anterior abdominal wall of the subject with an alcohol swab before the dorsal skin of the subject was scruffed and the subject inverted with head down. A 29 G needle with the bevel upwards is used to inject into the lower right abdominal quadrant. […]
Tumour volume was recorded as above. […]
Data was analysed with Microsoft Excel and Prism 7 to calculate average tumour volumes and standard deviations (SD). […]

SCC-15 cells = details: for Combination Index at IC50, Irradiation: with irradiation; for relationship by Chou-Talalay combination index method: Compound 1 with irradiation
Method: Cells were seeded at 3000 cells/well in 100 μL of medium in flat bottom 96 well cell culture plates (Corning Incorporated, New York, USA). Cells were incubated for 24 hr to ensure plate adherence prior to treatment.
One in two dilutions were then performed down the plate leaving the last row as an untreated control.
Each cell line was treated with each agent in triplicate with data being averaged across the three trials.
For single agent experiments, wells included no treatment and ethanol treatment controls. Following treatment, cells were incubated for 4 hours prior to washing with PBS and replacement of medium.
Following incubation of treated cells for 5-7 days, cell survival was determined using a sulforhodamine B (SRB) proliferation assay. This assay quantitatively assesses the degree of protein staining as a surrogate marker for cellular growth. Cells were washed with PBS and subsequently fixed with methylated spirits (Chem Supply, South Australia) for at least five minutes. Following fixation, the methylated spirits was removed and cells again washed gently with water prior to staining with 50 μL/well of 0.4% SRB solution (Sigma Aldrich) in 1% acetic acid for sixty minutes. This solution was tipped off and cells quickly washed twice with 1% acetic acid. The assay was completed with administration of 100 μL/well of 10 mM Tris base (unbuffered, pH >9, Invitrogen). Absorbance was measured on an enzyme-linked immunosorbent assay (ELISA) reader (VERSA max microplate reader, Molecular Devices, California, USA) at 564 nm and a five second agitation. Cell survival was graphed as a percentage of control well absorbance against dose.
Analysis was performed using the software program Combusyn.
As for the single agent experimentation, the cell lines were maintained in culture before their eventual transfer to 96-well plates. […] Cell survival was determined relative to no-treatment controls after 7 days of incubation using SRB assays.

A431 cells = details: for Combination Index at IC50, Irradiation: with irradiation
MC38 tumours = MC38 tumours in C57BL/6 syngeneic mouse model, intratumoural Compound 1 and external beam irradiation; assay type: in vivo; details: for Median Survival: Syngeneic Model
Method: The MC38 cell line is a murine colonic adenocarcinoma cell line derived from the C57BL/6 mouse (Kerafast, ENH204).
(§1) Subjects were ear tagged for identification.
Adequate positioning was ensured with the irradiator (Gammacel 40 Extractor) by sedating each mouse with a combination solution of Ketamine (80 mg/kg of 8 mg/mL solution, Ceva, NSW, AU) and Midazolam (4 mg/kg of 0.4 mg/mL solution, Sandoz, Hozkirchen, Germany) via intraperitoneal injection. Mice were double contained during transfer to and from the irradiator. During irradiation, mice were restrained with lead shielding to prevent exposure to sites other than the flanks where the tumours were located. […] On completion of treatment, mice were warmed with a heating blanket, placed on their side, and observed until ambulant.
(§2) Tumour volume was recorded as above.

UV-13-1 tumours = details: for Median Survival: Syngeneic Model
Method: as §5
C3H/HeNCr mice were shaved (Wahl, Illinois, USA) one day before inoculation. Whilst restrained subjects were inoculated on the hind quarter bilaterally by injecting 100 μL of the appropriate cell suspension into the subcutaneous space with a Terumo® (Tokyo, Japan) 27G×½″ needle. […] Following inoculation, mice were monitored twice weekly for tumour development and well-being and once tumours developed, the subjects were monitored daily.
as §6, §7
IP injections were performed by first sterilizing the anterior abdominal wall of the subject with an alcohol swab before the dorsal skin of the subject was scruffed and the subject inverted with head down. A 29 G needle with the bevel upwards is used to inject into the lower right abdominal quadrant.
On reaching a volume of 70-100 mm^3, tumours of the test subjects were injected IT with 50 μL of either 5 μg or 10 μg of Compound 1 or for control subjects 50 μL of 40% propylene glycol (PG).
The subjects were euthanized by CO2 inhalation when total tumour burden reached 1000 mm^3 per mouse, if ill, and on completion of the experiment.
Data was analysed with Microsoft Excel and Prism 7 to calculate average tumour volumes and standard deviations (SD). Individual and averaged tumour volumes and Kaplan-Meier survival curves were graphed relative to time of treatment.
C3H/HeNCr mouse model inoculated with UV-13-1 tumours is a syngeneic model where the mouse is immunocompetent and the influence of the immune system on treatment may be assessed. These mice were not culled at 60 days but were periodically (weekly) monitored up to 200 days for recurrence.

SCC-15 tumours [2] = test: SCC-15 tumours in BALB/c Foxn1^nu xenogeneic mouse model, intratumoural Compound 1 and external beam irradiation; assay type: in vivo; details: for Median Survival: Xenogeneic Model
Method: as §1
Adequate positioning was ensured with the irradiator (Gammacel 40 Extractor) by sedating each mouse with a combination solution of Ketamine (80 mg/kg of 8 mg/mL solution, Ceva, NSW, AU) and Midazolam (4 mg/kg of 0.4 mg/mL solution, Sandoz, Hozkirchen, Germany) via intraperitoneal injection. Mice were double contained during transfer to and from the irradiator. During irradiation, mice were restrained with lead shielding to prevent exposure to sites other than the flanks where the tumours were located.
as §2

[3] = intraperitoneal doxorubicin 3 mg/kg + intralesional 40% PG/30 mM acetate
[4] = IP N/Saline + IT 5 μg Compound 1
[5] = IP N/Saline + IT 10 μg Compound 1
[6] = 5 μg or 10 μg Compound 1, p<0.0001
[7] = 5 Gy irradiation + IT 7.5 μg Compound 1
[8] = 10 Gy irradiation + IT 7.5 μg Compound 1
[9] = syngeneic model, 5 Gy irradiation + 7.5 μg IT Compound 1
[10] = syngeneic model, 10 Gy irradiation + 7.5 μg IT Compound 1
[11] = IP cisplatin 2.5 mg/kg + IT 40% PG

Q: For `COc1cccc2c1C(=O)c1c(O)c3c(c(O)c1C2=O)C[C@@](O)(C(=O)CO)C[C@@H]3O[C@H]1C[C@H](N)[C@H](O)[C@H](C)O1` [doxorubicin, reference compound], which “effect on tumour growth” value (B16-F10-OVA tumours; [3]) is on record?
A: The value was “no effect on tumour growth”.

Q: What about the “effect on tumour growth and survival” value (LLC tumours; [3]) of the same compound?
A: The value was “minor effect on slowing tumour growth and prolonging survival”.

Q: What does the source list for `C/C=C(\C)C(=O)O[C@@H]1[C@@H](C)[C@@]2(O)[C@H]([C@@H]3C(C)(C)[C@]13OC(=O)[C@@H](C)CC)[C@@H]1O[C@]1(CO)[C@@H](O)[C@]1(O)C(=O)C(C)=C[C@H]12` [Compound 1, 12-tigloyl-13-(2-methylbutanoyl)-6,7-epoxy-4,5,9,12,13,20-hexahydroxy-1-tiglien-3-one]?
A: Median Survival (SCC-15 tumours [1]; [4]): 11 days; Median Survival (SCC-15 tumours [1]; [5]): 13 days; Combination Index at IC50, Irradiation (SCC-15 cells; Compound 1 concentration 2 μM): 0.15; Combination Index at IC50, Irradiation (SCC-15 cells; Compound 1 concentration 20 μM): 2.1; Combination Index at IC50, Irradiation (SCC-15 cells; Compound 1 concentration 40 μM): 1.75; Combination Index at IC50, Irradiation (SCC-15 cells; Compound 1 concentration 60 μM): 1.34; relationship by Chou-Talalay combination index method (SCC-15 cells; at low concentrations): synergistic; relationship by Chou-Talalay combination index method (SCC-15 cells; some combination indices (CI >1)): consistent with antagonism; cell survival (SCC-15 cells; exposure to Compound 1 and irradiation): pronounced fall in cell survival; Combination Index at IC50, Irradiation (A431 cells; Compound 1 concentration 10 μM): 0.33; Combination Index at IC50, Irradiation (A431 cells; Compound 1 concentration 50 μM): 0.41; Combination Index at IC50, Irradiation (A431 cells; Compound 1 concentration 100 μM): 0.12; Combination Index at IC50, Irradiation (A431 cells; Compound 1 concentration 200 μM): 0.08; cell death compared to Compound 1 alone (A431 cells; Compound 1 with any concentration of irradiation): significant increase in cell death; relationship by Chou-Talalay combination index method (A431 cells; Compound 1 with irradiation): synergistic; tumour growth and overall survival compared to vehicle alone (B16-F10-OVA tumours; [6]): slowed tumour growth and prolonged overall survival; tumours completely ablated (B16-F10-OVA tumours; saline/10 μg Compound 1 group): 4/20; Median Survival (MC38 tumours; 0 Gy + IT 7.5 μg Compound 1): 13 days; Median Survival (MC38 tumours; [7]): 31 days; Median Survival (MC38 tumours; [8]): 47 days; cure rate (MC38 tumours; syngeneic model, 7.5 μg IT Compound 1 alone): 70%; survival at experiment end (MC38 tumours; [9]): 20%; tumours that remained cured at 200 days following treatment (MC38 tumours; [9]): two; survival at experiment end (MC38 tumours; [10]): 20%; tumours that remained cured at 200 days following treatment (MC38 tumours; [10]): two; cure rate (proportion of tumours responding completely) (MC38 tumours; syngeneic model, Compound 1 and 5 Gy irradiation): 100%; cure rate (proportion of tumours responding completely) (MC38 tumours; syngeneic model, Compound 1 and 10 Gy irradiation): 100%; duration of treatment response (MC38 tumours; syngeneic model, Compound 1 monotherapy): 6.2 days; duration of treatment response (MC38 tumours; syngeneic model, Compound 1 with 5 Gy irradiation): 64.6 days; duration of treatment response (MC38 tumours; syngeneic model, Compound 1 with 10 Gy irradiation): 65.9 days; improvement of duration of treatment response over monotherapy (MC38 tumours; syngeneic model, Compound 1 with irradiation, either 5 Gy or 10 Gy): ≥ 8.7 ×; tumour response (individual and average tumour volumes) (MC38 tumours; syngeneic model, combinations of Compound 1 and irradiation): considerably improved tumour response; tumour growth and overall survival compared to vehicle alone (LLC tumours; [6]): slowed tumour growth and prolonged overall survival; Median Survival (UV-13-1 tumours; [4]): 16.5 days; Median Survival (UV-13-1 tumours; [5]): 23.5 days; efficacy versus IP cisplatin alone (UV-13-1 tumours; syngeneic model, 5 μg and 10 μg Compound 1 IT with saline): more efficacious than IP cisplatin alone; Median Survival (SCC-15 tumours [2]; 0 Gy + IT 7.5 μg Compound 1): 22 days; Median Survival (SCC-15 tumours [2]; [7]): 32 days; Median Survival (SCC-15 tumours [2]; [8]): 166 days; cure rate (SCC-15 tumours [2]; xenogeneic model, 7.5 μg IT Compound 1 alone): 70%; survival rate at 200 days (SCC-15 tumours [2]; xenogeneic model, 5 Gy irradiation + 7.5 μg IT Compound 1): 20%; survival rate at 200 days (SCC-15 tumours [2]; xenogeneic model, 10 Gy irradiation + 7.5 μg IT Compound 1): 50%; cure rate (proportion of tumours responding completely) (SCC-15 tumours [2]; xenogeneic model, Compound 1 and 5 Gy irradiation): 80%; cure rate (proportion of tumours responding completely) (SCC-15 tumours [2]; xenogeneic model, Compound 1 and 10 Gy irradiation): 70%; tumour size response compared to other combinations (SCC-15 tumours [2]; xenogeneic model, Compound 1 combined with irradiation): significant and durable reduction in tumour size; duration of treatment response (SCC-15 tumours [2]; xenogeneic model, Compound 1 monotherapy): 11 days; duration of treatment response (SCC-15 tumours [2]; xenogeneic model, Compound 1 with 5 Gy irradiation): 51.5 days; duration of treatment response (SCC-15 tumours [2]; xenogeneic model, Compound 1 with 10 Gy irradiation): 111 days; improvement of duration of treatment response over monotherapy (SCC-15 tumours [2]; xenogeneic model, Compound 1 with irradiation, either 5 Gy or 10 Gy): at least 4.6 ×

Q: What does the source list for `N.N.[Cl][Pt][Cl]` [cisplatin, reference compound]?
A: Median Survival (SCC-15 tumours [1]; [11]): 11 days; Median Survival (UV-13-1 tumours; [11]): 12 days
